Earlier results on one compound are cited in US12029822B2, “Drug delivery systems containing oxidized cholesterols” (Georgia Tech Research Corporation, priority 2019, dated 2024).

The test system of this data set is AB1-HA tumor. As to conditions: CTX treatment at Day 9.

As to `O=P1(N(CCCl)CCCl)NCCCO1` (stereo not shown) [CTX, Cyclophosphamide], the cure rate is 75%.
